From ChEMBL document CHEMBL5126503, “Renieramycin-type alkaloids from marine-derived organisms: Synthetic chemistry, biological activity and structural modification” (Eur J Med Chem, 2021)
Values after ≈ are worked out from the molar mass of the structure shown. Structures can show the parent of a compound that is named as a salt. One block for each compound: values may come before it.

Legend:
[1] = system: HeLa; assay: Antiproliferative activity against human HeLa cells assessed as cell growth inhibition; format: functional, cell-based
[2] = system: BGC-823; assay: Antiproliferative activity against human BGC-823 cells assessed as cell growth inhibition; format: functional, cell-based
[3] = system: MCF7; assay: Antiproliferative activity against human MCF7 cells assessed as cell growth inhibition; format: functional, cell-based
[4] = system: Bel-7402; assay: Antiproliferative activity against human Bel-7402 cells assessed as cell growth inhibition; format: functional, cell-based
[5] = system: HCT-8; assay: Antiproliferative activity against human HCT-8 cells assessed as cell growth inhibition; format: functional, cell-based
[6] = system: A549; assay: Cytotoxicity against human A549 cells assessed as cell growth inhibition; format: functional, cell-based
[7] = system: KETR3; assay: Antiproliferative activity against human KETR3 cells assessed as cell growth inhibition; format: functional, cell-based
[8] = system: A2780; assay: Antiproliferative activity against human A2780 cells assessed as cell growth inhibition; format: functional, cell-based
[9] = Antiproliferative activity against human HELF cells assessed as cell growth inhibition; format: toxicity, cell-based
[10] = system: KB; assay: Antiproliferative activity against human KB cells assessed as cell growth inhibition; format: functional, cell-based
[11] = system: HCT-116; assay: Cytotoxicity against human HCT-116 cells assessed as cell growth inhibition; format: functional, cell-based
[12] = system: QG-56; assay: Cytotoxicity against human QG-56 cells assessed as cell growth inhibition; format: functional, cell-based
[13] = system: DLD-1; assay: Cytotoxicity against human DLD-1 cells assessed as cell growth inhibition; format: functional, cell-based
[14] = system: NCI-H460; assay: Cytotoxicity against human NCI-H460 cells assessed as cell growth inhibition; format: functional, cell-based
[15] = system: Melanoma cell line; assay: Cytotoxicity against human Melanoma cell line assessed as cell growth inhibition; format: functional, cell-based
[16] = system: HT-29; assay: Cytotoxicity against human HT-29 cells assessed as cell growth inhibition; format: functional, cell-based
[17] = system: QG-56; assay: Cytotoxicity against human QG-56 cells assessed as cell growth inhibition incubated for 4 days by Cell counting kit-8 assay; format: functional, cell-based; conditions: QG-56, 96 h
[18] = Cytotoxicity against mouse NIH3T3 cells assessed as cell growth inhibition at 50 ng/ml; format: toxicity, cell-based
[19] = system: HCT-116; assay: Cytotoxicity against human HCT-116 cells assessed as cell growth inhibition incubated for 4 days by Cell counting kit-8 assay; format: functional, cell-based; conditions: HCT-116, 96 h
[20] = system: P388; assay: Cytotoxicity against mouse P388 cells assessed as cell growth inhibition; format: functional, cell-based
[21] = system: DU-145; assay: Cytotoxicity against human DU-145 cells assessed as cell growth inhibition incubated for 4 days by Cell counting kit-8 assay; format: functional, cell-based; conditions: DU-145, 96 h
[22] = system: KB; assay: Antiproliferative activity against human KB cells assessed as cell growth inhibition by MTT assay; format: functional, cell-based
[23] = system: HCT-8; assay: Antiproliferative activity against human HCT-8 cells assessed as cell growth inhibition by MTT assay; format: functional, cell-based
[24] = system: QG-56; assay: Growth inhibition of human QG-56 cells; format: functional
[25] = system: DU-145; assay: Growth inhibition of human DU-145 cells; format: functional
[26] = system: HCT-116; assay: Growth inhibition of human HCT-116 cells; format: functional
[27] = system: HeLa; assay: Antiproliferative activity against human HeLa cells assessed as cell growth inhibition by MTT assay; format: functional, cell-based
[28] = system: A549; assay: Antiproliferative activity against human A549 cells assessed as cell growth inhibition by MTT assay; format: functional, cell-based
[29] = system: BGC-823; assay: Antiproliferative activity against human BGC-823 cells assessed as cell growth inhibition by MTT assay; format: functional, cell-based
[30] = Cytotoxicity against human HEK293 cells assessed as cell growth inhibition; format: toxicity, cell-based
[31] = system: Bacillus subtilis; assay: Antimicrobial activity against Bacillus subtilis assessed as reduction in microbial growth by disk diffusion assay; format: functional
[32] = system: Malme-3M; assay: Growth inhibition of human Malme-3M cells; format: functional
[33] = system: Streptococcus pneumoniae; assay: Antimicrobial activity against Streptococcus pneumoniae assessed as reduction in microbial growth by disk diffusion assay; format: functional
[34] = system: Neisseria gonorrhoeae; assay: Antimicrobial activity against Penicillin resistant Neisseria gonorrhoeae assessed as reduction in microbial growth by disk diffusion assay; format: functional
[35] = system: Neisseria gonorrhoeae; assay: Antimicrobial activity against Neisseria gonorrhoeae assessed as reduction in microbial growth by disk diffusion assay; format: functional
[36] = system: Streptococcus pneumoniae; assay: Antimicrobial activity against Penicillin resistant Streptococcus pneumoniae assessed as reduction in microbial growth by disk diffusion assay; format: functional
[37] = system: MDA-MB-435; assay: Antiproliferative activity against human MDA-MB-435 cells assessed as cell growth inhibition by MTT colorimetric assay; format: functional, cell-based
[38] = system: HCT-116; assay: Antiproliferative activity against human HCT-116 cells assessed as cell growth inhibition by MTT colorimetric assay; format: functional, cell-based
[39] = system: ASPC1; assay: Cytotoxicity against human ASPC1 cells assessed as cell growth inhibition; format: functional, cell-based
[40] = Cytotoxicity against human U373 MG cells assessed as cell growth inhibition incubated for 4 to 72 hrs by MTT assay; format: functional, cell-based, U-373MG ATCC
[41] = system: T47D; assay: Cytotoxicity against human T47D cells assessed as cell growth inhibition; format: functional, cell-based
[42] = system: MCF7; assay: Cytotoxicity against human MCF7 cells assessed as cell growth inhibition incubated for 72 hrs by MTT assay; format: functional, cell-based; conditions: MCF7, 72 h

IC50 [1]: 2.12 nM
IC50 [2]: 2.12 nM
IC50 [3]: 2.12 nM
IC50 [4]: 2.12 nM
IC50 [5]: 2.12 nM
IC50 [8]: 2.12 nM
IC50 [10]: 2.12 nM
SMILES: COC1=C(C)C(=O)C2=C(C1=O)[C@@H]1[C@@H]3CC4=C(C(=O)C(OC)=C(C)C4=O)[C@H](COC(=O)C(=O)CNC(=O)c4ccccc4)N3[C@@H](C#N)[C@H](C2)N1C
IC50 [6]: 2.12 nM
IC50 [7]: 2.12 nM
IC50 [9]: 2.12 nM

SMILES: C/C=C(/C)C(=O)OC[C@H]1C2=C(C[C@H]3[C@H]4c5c(O)c(OC)c(C)c(O)c5[C@@H](O)[C@@H]([C@H](C#N)N13)N4C)C(=O)C(C)=C(OC)C2=O
IC50 [11]: 5.6 nM
IC50 [12]: 11 nM
IC50 [13]: 5.7 nM
IC50 [14]: 6.7 nM

SMILES: COC1=C(C)C(=O)C2=C(C1=O)[C@H]1CN(C)[C@@H](C#N)[C@H](C2)N1C
IC50 [11]: 84 nM
IC50 [12]: 240 nM

SMILES: COC1=C(C)C(=O)C2=C(C1=O)[C@@H]1[C@@H]3CC4=C(C(=O)C(OC)=C(C)C4=O)[C@H](COC(C)=O)N3[C@@H](O)[C@H](C2)N1C
IC50 [6]: 0.0125 µg/mL
IC50 [15]: 0.0125 µg/mL (≈ 0.0237 µM)
IC50 [16]: 0.0125 µg/mL (≈ 0.0237 µM)
IC50 [17]: 0.76 nM
inhibition at 50 ng/ml [18]: 100%
IC50 [19]: 0.57 nM
IC50 [20]: 0.0125 µg/mL (≈ 0.0237 µM)
IC50 [21]: 0.49 nM

IC50 [22]: 3500 nM
IC50 [23]: 3500 nM
GI50 [25]: 1300 nM
GI50 [26]: 1100 nM
IC50 [27]: 3800 nM
IC50 [28]: 3500 nM
IC50 [29]: 3500 nM
SMILES: C/C=C(/C)C(=O)OC[C@H]1C2=C(C[C@H]3[C@H]4C5=C(C[C@@H](C(=O)N13)N4C)C(=O)C(C)=C(OC)C5=O)C(=O)C(C)=C(OC)C2=O [(-)-RENIERAMYCIN G]
GI50 [24]: 1300 nM

SMILES: CC(C)C[C@H](NC(=O)[C@H](Cc1ccccc1)NC(=O)c1cnccn1)B(O)O [BORTEZOMIB]
IC50 [30]: 14000 nM

SMILES: C/C=C(/C)C(=O)OC[C@H]1C2=C(C=C3[C@H]4c5c(O)c(OC)c(C)c(O)c5C(=O)[C@@H](C(=O)N31)N4C)C(=O)C(C)=C(OC)C2=O [CRIBROSTATIN 5]
MIC [31]: 12.5 µg
GI50 [32]: 390 nM
MIC [33]: 6.25 µg
MIC [34]: 1.56 µg
MIC [35]: 6.25 µg
MIC [36]: 50 µg

SMILES: COC1=C(C)C(=O)C2=C(C1=O)[C@@H]1[C@@H]3CC4=C(C(=O)C(OC)=C(C)C4=O)[C@H](COC(C)=O)N3[C@@H](C#N)[C@H](C2)N1C [CYANOJORUMYCIN]
IC50 [11]: < 0.38 nM
IC50 [12]: 0.68 nM

SMILES: COc1cccc2c1C(=O)c1c(O)c3c(c(O)c1C2=O)C[C@@](O)(C(=O)CO)C[C@@H]3O[C@H]1C[C@H](N)[C@H](O)[C@H](C)O1 [DOXORUBICIN HYDROCHLORIDE]
IC50 [6]: 310 nM

IC50 [37]: 16.3 nM
IC50 [38]: 27.3 nM
SMILES: CCC(=O)OC[C@H]1C2=C(C[C@H]3[C@H]4C5=C(C[C@@H]([C@H](C#N)N13)N4C)C(=O)C(C)=C(OC)C5=O)C(=O)C(C)=C(OC)C2=O [JORUNNAMYCIN C]
IC50 [17]: 2.8 nM
IC50 [19]: 1.5 nM
IC50 [21]: 0.32 nM

SMILES: C/C=C(/C)C(=O)OC[C@H]1C2=C(C[C@H]3[C@H]4C5=C(C[C@@H]([C@H](C#N)N13)N4C)C(=O)C(C)=C(OC)C5=O)C(=O)C(C)=C(OC)C2=O [RENIERAMYCIN M]
IC50 [39]: 20 nM
IC50 [40]: 3.1 nM
IC50 [41]: 0.84 nM
IC50 [17]: 11 nM
GI50 [25]: 1700 nM
IC50 [42]: 6 nM
IC50 [37]: 6.3 nM
IC50 [38]: 16.4 nM
